The subject of series [1] is MDA‐MB‐231 xenograft model. As to the kind of experiment: In vivo antitumor evaluation, MDA-MB-231 xenograft. The arrangement: species or system mouse. To be noted: MDA-MB-231 tumor-bearing nude mice; DOX-P18 up to 100 mg kg^−1 (20 mg kg^−1 DOX); DOX at 10 and 20 mg kg^−1. The source says:
(§1) All the animal experimental procedures were recognized and approved by the Regional Ethics Committee for Animal Experiments at Ningbo University, China (Permit NO. SYXK (Zhe) 2019‐0005). The triple‐negative breast cancer (TNBC) xenograft tumors were established on female BALB/c nude mice (≈15 g) by subcutaneous injection of MDA‐MB‐231 cells (5 × 10^6 cells in each mouse). TNBC metastasis models were constructed by injecting MDA‐MB‐231‐luc cells (1 × 10^5 cells in each mouse) through the tail vein to female BALB/c nude mice. The day that MDA‐MB‐231‐luc was injected was set as D0. In vivo imaging system (IVIS) (Lumina XRMS Ш, PerkinElmer, USA) was utilized to identify the tumor metastasis at D12.
When the tumor volume of BALB/c mice reached ≈70 mm^3 (V = L × W × W/2), the tumor‐bearing mice were randomly divided into seven groups (n = 5 for each group). […] 100 µL drug was injected intravenously through the tail vein every other day for a total of five times. The day that the first injection was given was set as D0. Tumor size and mouse weight were measured every 2 days from the day that treatment started until D26.

Series [2] concerns MDA‐MB‐231 metastasis model. As to the kind of experiment: Anti-metastasis evaluation, MDA-MB-231 metastasis model. To be noted: MDA-MB-231 metastasis model, DOX 5 mg kg^−1. The class given is in vivo, mouse.
From the text: as §1
For the TNBC metastasis model, two kinds of treatments were developed. […] After seven times of injections, continued observation of the mice was carried out. […] In vivo imaging system (IVIS Lumina XRMS Ш, PerkinElmer, USA) was utilized again to estimate the tumor metastasis at D26. Meanwhile, the mice were sacrificed and the main organs (heart, livers, spleen, lung, and kidney) were separated for histological analysis.

Series [3] deals with healthy ICR mice. As to the kind of experiment: Maximum tolerated dose / acute toxicity study. The text has this: Animal survival of each group (n = 10, 5 female and 5 male) was continuously recorded for 14 days. Eventually, the evaluation and calculation of the median lethal dose (LD50) were completed with these collected data using the Bliss rule.
The subject of series [4] is MDA‐MB‐231 cells. As to the kind of experiment: CCK-8 cell viability assay, MDA-MB-231. The series is classed as cell-based, human. As to the method: (§2) MDA‐MB‐231 cells were incubated in 96‐well plates for 24 h (1 × 10^4 cells per well). […] At the appointed time, 10 µL CCK‐8 solution was dropped into each well and further co‐incubated with treated cells for 2 h. The absorbance values at 450 nm were measured by an automated plate reader (iMark (168‐1130), Biorad, USA). The IC50 values were obtained from Microsoft Excel's FORECAST formula.

Series [5] relates to MCF‐10A cells. As to the kind of experiment: CCK-8 cell viability assay, MCF-10A. The series is classed as cell-based, human. Particulars: 24 h. As to the method: as §2
mammary epithelial cell line MCF-10A after 24 h incubation. Data are presented as
means ± standard deviations (n = 3).
(§3) (1 picture or pasted object on this page, not shown here)
In general terms: Tetrazolium dyes change colour on reduction, which living cells bring about.

Series [6] has as its system MCF‐7 cells. As to the kind of experiment: CCK-8 cell viability assay, MCF-7. To be noted: MCF-7, 24 h. The series is classed as cell-based, human. The method, then: as §2
breast cancer cell line MCF-7 after 24 h incubation. Data are presented as means ±
standard deviations (n = 3).
as §3

Series [7] in a line: Morphological transformation / particle size by DLS and TEM in PBS of different pH. The class given is physicochemical. To be noted: TEM, PBS pH 6.5.

Structures are written as SMILES. Starred links: 1 amine or outer side, 2 acyl side, 3 side chain; linkers in the order of their positions; H or OH if unused. Residues, ends and D or L forms follow the SMILES beside them. *: point of attachment. Doxorubicin(3'-N) = COc1cccc2c1C(=O)c1c(O)c3c(c(O)c1C2=O)C[C@@](O)(C(=O)CO)C[C@@H]3O[C@H]1C[C@H](N*)[C@H](O)[C@H](C)O1; Suc = O=C(CCC(=O)[*:2])[*:1]

Turning to `COc1cccc2c1C(=O)c1c(O)c3c(c(O)c1C2=O)C[C@@](O)(C(=O)CO)C[C@@H]3O[C@H]1C[C@H](N)[C@H](O)[C@H](C)O1` [DOX, doxorubicin, reference compound], in series [1], the “Death / body weight in tumor-bearing mice” value is recorded as “cause death”. For the same molecule, the “Survival in metastasis model” value in series [2] was “no mice survived up to day 14 (D14)”. In series [3] (14 days after single dose, 40 mg kg^−1 DOX (or DOX equivalent)), the “Histological analysis of major organs” value was “disordered arrangement of myofilaments, glomerulosclerosis, and protein casts”. Besides, the “Blood biochemistry: ALT and ALP activity” value in series [3] (14 days after single injection, with increasing dose, n = 3) is given as “gradually decreased”.

For `COc1cccc2c1C(=O)c1c(O)c3c(c(O)c1C2=O)C[C@@](O)(C(=O)CO)C[C@@H]3O[C@H]1C[C@H](NC(=O)CCC(=O)N2CCC[C@H]2C(=O)N[C@@H](CC(C)C)C(=O)NCC(=O)O)[C@H](O)[C@H](C)O1` [DOX‐P3], in series [4] (MDA-MB-231, 36 and 48 h versus 24 h), the “IC50 with extended incubation time” value is on record as “further reduced”.

In the case of `CC[C@H](C)[C@H](NC(=O)[C@@H]1CCCN1C(=O)[C@H](CC(N)=O)NC(=O)[C@H](CC(N)=O)NC(=O)[C@H](Cc1ccc(O)cc1)NC(=O)[C@H](Cc1c[nH]cn1)NC(=O)[C@H](CCCNC(=N)N)NC(=O)[C@@H](NC(=O)[C@H](CCCNC(=N)N)NC(=O)CNC(=O)CNC(=O)[C@H](CC(C)C)NC(=O)[C@@H]1CCCN1C(=O)CCC(=O)N[C@H]1C[C@H](O[C@H]2C[C@](O)(C(=O)CO)Cc3c(O)c4c(c(O)c32)C(=O)c2c(OC)cccc2C4=O)O[C@@H](C)[C@H]1O)C(C)C)C(=O)N[C@@H](Cc1c[nH]c2ccccc12)C(=O)N[C@@H](CCCNC(=N)N)C(=O)N[C@@H](CCC(N)=O)C(=O)N[C@@H](CCCNC(=N)N)C(=O)N[C@@H](Cc1ccc(O)cc1)C(N)=O` [DOX‐P18R] ({Doxorubicin(3'-N)-Suc}-PLGGRVRHYNNPIWRQRY-NH2), the “IC50 (cytotoxicity), in words” value is recorded as “particularly high IC50 values” in series [5]; “particularly high IC50 values” in series [6]; “particularly high IC50 values” in series [4] (MDA-MB-231, 24 h).

On to `CC[C@H](C)[C@H](NC(=O)[C@@H]1CCCN1C(=O)[C@H](CC(N)=O)NC(=O)[C@H](CC(N)=O)NC(=O)[C@H](Cc1ccc(O)cc1)NC(=O)[C@H](Cc1c[nH]cn1)NC(=O)[C@H](CCCNC(=N)N)NC(=O)CNC(=O)[C@H](CCCNC(=N)N)NC(=O)[C@@H](N)C(C)C)C(=O)N[C@@H](Cc1c[nH]c2ccccc12)C(=O)N[C@@H](CCCNC(=N)N)C(=O)N[C@@H](CCC(N)=O)C(=O)N[C@@H](CCCNC(=N)N)C(=O)N[C@@H](Cc1ccc(O)cc1)C(N)=O` [P15] (H-VRGRHYNNPIWRQRY-NH2), for which the “Morphology by TEM” value in series [7] is given as “fibroid aggregations”.

These data come from publication PMC10375191, “Transformable Neuropeptide Prodrug with Tumor Microenvironment Responsiveness for Tumor Growth and Metastasis Inhibition of Triple‐Negative Breast Cancer” (Advanced Science, 2023).
